The record followed here is ChEMBL document CHEMBL3407331, “Discovery of AM-7209, a potent and selective 4-amidobenzoic acid inhibitor of the MDM2-p53 interaction” (J Med Chem, 2014).

Series [1] has as its system Hepatocyte. Description: cells. As to conditions: Homo sapiens.
The test system of series [2] is SJSA-1. Briefly: cells. As to conditions: Homo sapiens, SJSA-1, 16 h.
The nature of series [3]: Drug metabolism in rat hepatocytes treated with 4-(2-((3R,5R,6S)-1-((S)-2-(tert-Butylsulfonyl)-1-cyclopropylethyl)-6-(4-chloro-3-fluorophenyl)-5-(3-chlorophenyl)-3-methyl-2-oxopiperidin-3-yl)acetamido)-2-methoxybenzoic acid at 10 uM after 2 hrs by LC/MS analysis. The format is ADME, cell-based, Hepatocyte.
Series [4] in a line: Drug metabolism in rat hepatocytes treated with AMG 232 at 10 uM after 2 hrs by LC/MS analysis. The format is ADME, cell-based, Hepatocyte.
Series [5] can be described thus: Drug metabolism in cynomolgus monkey hepatocytes treated with 4-(2-((3R,5R,6S)-1-((S)-2-(tert-Butylsulfonyl)-1-cyclopropylethyl)-6-(4-chloro-3-fluorophenyl)-5-(3-chlorophenyl)-3-methyl-2-oxopiperidin-3-yl)acetamido)-2-methoxybenzoic acid at 10 uM after 2 hrs by LC/MS analysis. The format is ADME, cell-based, Macaca fascicularis, Hepatocyte.
Series [6] is described as follows: Drug metabolism in dog hepatocytes treated with 4-(2-((3R,5R,6S)-1-((S)-2-(tert-Butylsulfonyl)-1-cyclopropylethyl)-6-(4-chloro-3-fluorophenyl)-5-(3-chlorophenyl)-3-methyl-2-oxopiperidin-3-yl)acetamido)-2-methoxybenzoic acid at 10 uM after 2 hrs by LC/MS analysis. The format is ADME, cell-based, Canis lupus familiaris, Hepatocyte.
A short description of series [7]: Drug metabolism in cynomolgus monkey hepatocytes treated with AMG 232 at 10 uM after 2 hrs by LC/MS analysis. The format is ADME, cell-based, Macaca fascicularis, Hepatocyte.
The nature of series [8]: Drug metabolism in human hepatocytes treated with AMG 232 at 10 uM after 2 hrs by LC/MS analysis. The format is ADME, cell-based, Hepatocyte.
The nature of series [9]: Drug metabolism in dog hepatocytes treated with AMG 232 at 10 uM after 2 hrs by LC/MS analysis. The format is ADME, cell-based, Canis lupus familiaris, Hepatocyte.
Series [10] is described as follows: Drug metabolism in human hepatocytes treated with 4-(2-((3R,5R,6S)-1-((S)-2-(tert-Butylsulfonyl)-1-cyclopropylethyl)-6-(4-chloro-3-fluorophenyl)-5-(3-chlorophenyl)-3-methyl-2-oxopiperidin-3-yl)acetamido)-2-methoxybenzoic acid at 10 uM after 2 hrs by LC/MS analysis. The format is ADME, cell-based, Hepatocyte.
In series [11] the target is T1, E3 ubiquitin-protein ligase Mdm2 (Homo sapiens, UniProt Q00987).
The target of series [12] is T1, E3 ubiquitin-protein ligase Mdm2. The source holds these as a separate data set.
For series [13], the target named is T2, PXR (NR1I2) (Homo sapiens, UniProt O75469).
T2 sequence (O75469 whole entry): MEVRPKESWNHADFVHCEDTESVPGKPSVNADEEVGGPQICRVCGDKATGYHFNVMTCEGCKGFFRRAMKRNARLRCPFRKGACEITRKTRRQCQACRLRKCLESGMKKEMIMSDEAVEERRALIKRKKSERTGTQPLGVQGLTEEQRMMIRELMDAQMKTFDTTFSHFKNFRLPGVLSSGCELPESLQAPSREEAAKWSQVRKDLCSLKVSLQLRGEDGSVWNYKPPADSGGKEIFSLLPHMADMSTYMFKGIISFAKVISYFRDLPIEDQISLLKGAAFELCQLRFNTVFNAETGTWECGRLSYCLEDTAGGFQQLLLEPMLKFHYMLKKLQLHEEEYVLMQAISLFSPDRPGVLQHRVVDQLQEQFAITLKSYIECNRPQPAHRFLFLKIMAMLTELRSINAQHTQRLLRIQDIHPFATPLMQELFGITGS
Description: Activation of human PXR at 2 uM relative to control. As to conditions: read-out: Activity. The format is ADME.

Series [14] addresses T3, CYP3A4 (Homo sapiens, UniProt P08684). Description: Time-dependent inhibition of CYP3A4 (unknown origin) assessed as remaining activity at 10 uM after 30 mins. As to conditions: read-out: Activity. The format is ADME.
Series [15] has as its target T3, CYP3A4. Briefly: Inhibition of CYP3A4 (unknown origin) at 3 uM. The format is ADME.

T3 sequence (P08684 whole entry): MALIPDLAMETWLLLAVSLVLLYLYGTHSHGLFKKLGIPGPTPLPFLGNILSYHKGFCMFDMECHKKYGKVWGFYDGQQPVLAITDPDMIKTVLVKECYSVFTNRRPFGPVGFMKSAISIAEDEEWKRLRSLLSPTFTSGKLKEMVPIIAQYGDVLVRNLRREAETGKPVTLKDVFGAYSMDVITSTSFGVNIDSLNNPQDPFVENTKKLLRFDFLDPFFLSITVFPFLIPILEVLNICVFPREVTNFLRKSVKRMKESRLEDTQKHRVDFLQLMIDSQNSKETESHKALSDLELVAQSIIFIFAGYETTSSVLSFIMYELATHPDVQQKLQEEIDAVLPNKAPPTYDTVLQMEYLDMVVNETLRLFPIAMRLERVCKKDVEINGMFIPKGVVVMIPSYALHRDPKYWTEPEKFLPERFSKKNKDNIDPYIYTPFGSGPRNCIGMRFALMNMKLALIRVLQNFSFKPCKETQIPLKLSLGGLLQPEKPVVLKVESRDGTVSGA
T1 sequence (Q00987 whole entry): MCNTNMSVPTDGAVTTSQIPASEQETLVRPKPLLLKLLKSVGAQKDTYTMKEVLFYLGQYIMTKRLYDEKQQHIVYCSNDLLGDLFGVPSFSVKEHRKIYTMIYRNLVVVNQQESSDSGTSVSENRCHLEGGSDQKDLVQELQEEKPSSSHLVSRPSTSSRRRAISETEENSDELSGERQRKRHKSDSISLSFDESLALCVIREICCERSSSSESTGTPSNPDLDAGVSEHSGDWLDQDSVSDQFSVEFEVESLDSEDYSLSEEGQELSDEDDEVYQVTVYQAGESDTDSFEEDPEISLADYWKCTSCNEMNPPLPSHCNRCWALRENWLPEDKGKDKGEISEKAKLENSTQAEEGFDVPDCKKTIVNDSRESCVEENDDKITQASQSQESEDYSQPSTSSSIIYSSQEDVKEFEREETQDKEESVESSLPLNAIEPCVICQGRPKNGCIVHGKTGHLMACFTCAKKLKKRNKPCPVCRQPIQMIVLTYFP

Regarding `CC(C)(C)S(=O)(=O)C[C@H](C1CC1)N1C(=O)[C@@](C)(CC(=O)O)C[C@H](c2cccc(Cl)c2)[C@H]1c1ccc(Cl)c(F)c1`, in [1], the CLint turned out to be 26 µL/min/10⁶ cells. In turn, `COc1cc(NC(=O)C[C@@]2(C)C[C@H](c3cccc(Cl)c3)[C@@H](c3ccc(Cl)cc3)N([C@H](CS(=O)(=O)C(C)(C)C)C3CC3)C2=O)ccc1C(N)=O` came in with an IC50 in series [2] of 15 nM. On the same count and under the same terms, the result for `CC(C)(C)S(=O)(=O)C[C@H](C1CC1)N1C(=O)[C@@](C)(CC(=O)N[C@H]2CC[C@@H](C(=O)O)CC2)C[C@H](c2cccc(Cl)c2)[C@H]1c1ccc(Cl)cc1` reads 17 nM. In the case of `CC(C)[C@@H](CS(=O)(=O)C(C)C)N1C(=O)[C@@](C)(CC(=O)OC2O[C@H](C(=O)O)[C@@H](O)[C@H](O)[C@H]2O)C[C@H](c2cccc(Cl)c2)[C@H]1c1ccc(Cl)cc1` (stereo partly drawn), the Drug metabolism entry in series [3], in series [4], in [5], in series [6], in series [7] and in series [8] was “metabolite_detected” throughout. Besides, the Drug metabolism entry in series [9] and in series [10] was “metabolite_detected” each time.

For `CC(C)(C)S(=O)(=O)C[C@H](C1CC1)N1C(=O)[C@@](C)(CC(=O)O)C[C@H](c2cccc(Cl)c2F)[C@H]1c1ccc(Cl)cc1`, the half-maximal inhibitory concentration (IC50) in series [11] was 6.4 nM; in series [2] it was 0.8 nM; in series [12], less than 0.1 nM. The CLint in [1] is 27 µL/min/10⁶ cells. `CC(C)(C)S(=O)(=O)C[C@H](C1CC1)N1C(=O)[C@@](C)(CC(=O)N[C@H]2C[C@@H](C(=O)O)C2)C[C@H](c2cccc(Cl)c2)[C@H]1c1ccc(Cl)cc1` yielded a 50% inhibitory concentration (IC50) in series [2] of 22 nM. As for `CC(C)(C)S(=O)(=O)C[C@H](C1CC1)N1C(=O)[C@@](C)(CC(=O)Nc2ccccc2C(=O)O)C[C@H](c2cccc(Cl)c2)[C@H]1c1ccc(Cl)cc1`, the half-inhibitory concentration (IC50) in series [2] came to 45 nM. On the same count and under the same terms, as for `CC(C)(C)S(=O)(=O)C[C@H](C1CC1)N1C(=O)[C@@](C)(CC(=O)Nc2cccc(C(=O)O)c2)C[C@H](c2cccc(Cl)c2)[C@H]1c1ccc(Cl)cc1`, the figure is 9.7 nM; as for `CC1(C(=O)O)CCN(C(=O)C[C@@]2(C)C[C@H](c3cccc(Cl)c3)[C@@H](c3ccc(Cl)cc3)N([C@H](CS(=O)(=O)C(C)(C)C)C3CC3)C2=O)CC1`, 6.8 nM. The same measure, in the same setting: as for `CC(C)(C)S(=O)(=O)C[C@H](C1CC1)N1C(=O)[C@@](C)(CC(=O)N[C@H]2C[C@H](C(=O)O)C2)C[C@H](c2cccc(Cl)c2)[C@H]1c1ccc(Cl)cc1`, the figure is 13.5 nM. With `COc1cc(NC(=O)C[C@@]2(C)C[C@H](c3cccc(Cl)c3F)[C@@H](c3ccc(Cl)cc3)N([C@H](CS(=O)(=O)C(C)(C)C)C3CC3)C2=O)ccc1C(=O)O`, in [13], the activity at 2 µM was determined as 0%. Further, the activity at 0.5 h, 10 µM in [14] turned out to be 72%. Also, the inhibition at 3 µM in series [15] turned out to be 14%.

In turn, `CC(C)(C)S(=O)(=O)C[C@H](C1CC1)N1C(=O)[C@@](C)(CC(=O)N[C@H]2CC[C@H](C(=O)O)CC2)C[C@H](c2cccc(Cl)c2)[C@H]1c1ccc(Cl)cc1` gave an IC50 in series [2] of 7.5 nM.

On to `COc1cc(NC(=O)C[C@@]2(C)C[C@H](c3cccc(Cl)c3)[C@@H](c3ccc(Cl)cc3)N([C@H](CS(=O)(=O)C(C)(C)C)C3CC3)C2=O)ccc1C(=O)O`, for which the activity at 2 µM in series [13] was determined as 14%. Further, the activity at 0.5 h, 10 µM in series [14] was determined as 85%. Further, inhibition in series [2] was half-maximal at 1.9 nM (IC50). In addition, 3 µM produced 14% inhibition in [15]. For the molecule `CC(C)(C)S(=O)(=O)C[C@H](C1CC1)N1C(=O)[C@@](C)(CC(=O)Nc2ccc(C(=O)O)cc2)C[C@H](c2cccc(Cl)c2)[C@H]1c1ccc(Cl)cc1`, the activity at 2 µM in [13] was 0%. In [14], the activity at 0.5 h, 10 µM was 78%. The same molecule gave an IC50 in series [2] of 2.9 nM. This molecule showed an inhibition at 3 µM in [15] of less than 10%.

In series [2], `CC(C)(C)S(=O)(=O)C[C@H](C1CC1)N1C(=O)[C@@](C)(CC(=O)N2CC(C(=O)O)C2)C[C@H](c2cccc(Cl)c2)[C@H]1c1ccc(Cl)cc1` returned a half-maximal inhibitory concentration (IC50) of 46 nM. With `CC(C)(C)S(=O)(=O)C[C@H](C1CC1)N1C(=O)[C@@](C)(CC(=O)NC23CCC(C(=O)O)(CC2)CC3)C[C@H](c2cccc(Cl)c2)[C@H]1c1ccc(Cl)cc1`, the activity at 2 µM in series [13] worked out at 0%. In addition, the activity at 0.5 h, 10 µM in series [14] came out at 75%. The molecule also came in with a concentration for half-maximal inhibition (IC50) in series [2] of 5.9 nM. In series [15], this molecule gave an inhibition at 3 µM of less than 10%. `CC(C)(C)S(=O)(=O)C[C@H](C1CC1)N1C(=O)[C@@](C)(CC(=O)Nc2ccc(C(=O)O)cn2)C[C@H](c2cccc(Cl)c2)[C@H]1c1ccc(Cl)cc1` came in with an IC50 in series [2] of 9 nM. In [2], `CC(C)(C)S(=O)(=O)C[C@H](C1CC1)N1C(=O)[C@@](C)(CC(=O)Nc2ccc(C#N)cc2)C[C@H](c2cccc(Cl)c2)[C@H]1c1ccc(Cl)cc1` showed an IC50 of 138 nM.

The molecule `COc1cc(C(=O)O)ccc1NC(=O)C[C@@]1(C)C[C@H](c2cccc(Cl)c2)[C@@H](c2ccc(Cl)cc2)N([C@H](CS(=O)(=O)C(C)(C)C)C2CC2)C1=O` showed an IC50 in [2] of 6.9 nM. `CN(C(=O)C[C@@]1(C)C[C@H](c2cccc(Cl)c2)[C@@H](c2ccc(Cl)cc2)N([C@H](CS(=O)(=O)C(C)(C)C)C2CC2)C1=O)c1ccc(C(=O)O)cc1`: it took 198 nM to reach half-maximal inhibition in series [2] (IC50). The same measure, in the same setting: as for `CC(C)(C)S(=O)(=O)C[C@H](C1CC1)N1C(=O)[C@@](C)(CC(=O)Nc2ccc(CC(=O)O)cc2)C[C@H](c2cccc(Cl)c2)[C@H]1c1ccc(Cl)cc1`, the figure is 2.7 nM; as for `CC(C)(C)S(=O)(=O)C[C@H](C1CC1)N1C(=O)[C@@](C)(CC(=O)N2CCC(C(=O)O)CC2)C[C@H](c2cccc(Cl)c2)[C@H]1c1ccc(Cl)cc1`, 11.7 nM.

As usually defined, the IC50 is the concentration needed to halve the response being measured. By inhibition is commonly meant the share of the control response that was lost under treatment.
